Columns and labels:
[1] = Phase 1 clinical study, tolerability; type: in vivo; settings: most common adverse events fatigue, diarrhea, anorexia, rash, palmar-plantar erythrodysesthesia
[2] = tested on: pancreatic neuroendocrine tumor; experiment: Murine pancreatic neuroendocrine tumor model; type: in vivo
xenograft tumor models = experiment: Xenograft tumor models; type: in vivo
[3] = tested on: melanoma, including ocular melanoma; experiment: Phase 2 randomized discontinuation trial in adults with melanoma (NCT00940225); type: in vivo, human
Experimental: Compound 1 was used in a Phase 2 randomized discontinuation trial study of adults with melanoma, including ocular melanoma (See NCT00940225, Abstract 371). Compound 1 was administered at a daily dose of 100 mg (125 mg salt equivalent). The study endpoints included objective response rate (ORR) per mRECIST in the lead-in stage, and progression-free survival in the randomized stage. The eligibility criteria included: (a) pathologically and radiologically confirmed diagnosis of advanced melanoma; (b) cutaneous, mucosal, or ocular subtypes; (c) up to two lines of prior systemic treatment (not including immunotherapy); (d) documented progressive disease and measurable target lesion(s) per mRECIST; and (e) no known brain metastases. Tumors were assessed by CT/MRI at baseline and every 6 weeks thereafter. Archival tumor tissue was retained for genotyping and biomarker analysis.

[4] = tested on: endothelial cells and tumor cells; experiment: Apoptosis of endothelial cells and tumor cells; type: cell-based

Structure (SMILES): COc1cc2nccc(Oc3ccc(NC(=O)C4(C(=O)Nc5ccc(F)cc5)CC4)cc3)c2cc1OC [Compound 1, N-(4-{[6,7-bis(methyloxy)quinolin-4-yl]oxy}phenyl)-N′-(4-fluorophenyl)cyclopropane-1,1-dicarboxamide]
- Tolerability [1]: generally well-tolerated
- Overall survival [2]: substantially improves overall survival
- Tumor invasiveness and metastasis [2]: significantly reduces tumor invasiveness and metastasis
- Effect on tumor (xenograft tumor models): causes tumor regression
- Patients with objective tumor shrinkage ([3]; all enrolled patients with melanoma, daily dose of 100 mg): sixty
- Best response ([3]; ocular melanoma Patients 5, 6, 14, 15, 18, 20, 22, 26, 28 and 29 (FIGS. 4A and 4B)): stable disease
- Patients with evidence of objective tumor regression ([3]; patients with ocular cancer, six months): 48%
- Disease control rate ([3]; patients with ocular cancer, week 12): 14%
- Patients showing a positive disease control rate ([3]; patients with ocular melanoma who were tested (FIG. 3)): Eight of the fourteen
- Partial response observed ([3]; patients with ocular melanoma, week 6): One
- Induction of apoptosis [4]: rapidly induces apoptosis
